Values of other authors in patent US20240216406A1, “METHODS AND COMPOSITIONS FOR SUPPORTING HUMAN HEALTH DURING SPACE TRAVEL” (Intrinsic Medicine, Inc., priority 2021, published 2024).
Like-named read-outs stand apart in the source and are kept apart here.

Legend:
local gut inflammation = conditions: models of necrotizing enterocolitis and other inflammatory bowel diseases
E. Coli = conditions: in the presence of the HMO
[1] = test system: murine and human derived macrophages; conditions: in vitro
[2] = test system: PDL1, COX2, CCL2 (MCP1), CCL5
p65 = conditions: murine rheumatoid arthritis model
[3] = test system: mouse models of rheumatoid arthritis; conditions: administered orally; mouse rheumatoid arthritis models with LPS challenge

Molecule: CC1O[C@@H](OC2[C@H](O[C@@H]3C(CO)OC(O)C(O)C3O)OC(CO)[C@H](O)[C@@H]2O)C(O)[C@@H](O)[C@@H]1O (some centres unmarked) [2′FL, 2′-fucosyllactose]
- TNFα and IL-8 (TNFα and IL-8): reduction in TNFα and IL-8
- gut epithelial barrier function (gut epithelial barrier): positive effects on gut epithelial barrier function
- local gut inflammation (local gut inflammation): reduction of local gut inflammation
- E. Coli adhesion to Caco-2 cells (E. Coli): reduction of E. Coli adhesion

Molecule: CC(=O)N[C@H]1C([C@H](O)[C@H](O)CO)O[C@@](OCC2O[C@@H](O[C@@H]3C(CO)O[C@@H](O)C(O)[C@H]3O)C(O)[C@@H](O)[C@H]2O)(C(=O)O)C[C@H]1O (some centres unmarked) [6′SL, 6′-sialyllactose]
- IL-1β, IL-2, IL-4, IL-6, IL-12, IFN γ or TNF-α [1]: reductions
- E. Coli adhesion to Caco-2 cells (E. Coli): reduction of E. Coli adhesion

Molecule: CC(=O)N[C@H]1C([C@H](O)[C@H](O)CO)O[C@@](O[C@@H]2C(O)[C@H](O[C@@H]3C(CO)O[C@@H](O)C(O)[C@H]3O)OC(CO)[C@@H]2O)(C(=O)O)C[C@H]1O (some centres unmarked) [3′SL, 3′-sialyllactose]
- PDL1, COX2 and select chemokines such as CCL2 (MCP1) and CCL5 [2]: reduce other key target proteins
- IL-1β, IL-2, IL-4, IL-6, IL-12, IFN γ or TNF-α [1]: reductions
- IL-1β, IL-2, IL-4, IL-6, IL-12, IFN γ or TNF-α ([1]; listed as 3′-SL): more significant reductions
- phosphorylation of p65 (NF-kB signaling pathway) (p65): inhibited phosphorylation of p65

Molecule: sialyllactose
- clinical assessments of disease [3]: benefit in clinical assessments of disease
